The values that follow come from patent US12312370B2, “Immunoproteasome inhibitors” (Principia Biopharma Inc., priority 2017, dated 2025).

Molecules are shown by their SMILES. Where two headings read alike, the source gives them in different places.

Assay [1] addresses immunoproteasome LMP7/B5i subunit (Homo sapiens, UniProt P28062). In words: Caliper-based proteasome enzymatic activity assay, LMP7. Type of assay: biochemical.
The target in assay [2] is constitutive proteasome β5c unit (Homo sapiens, UniProt P28074). In words: Caliper-based proteasome enzymatic activity assay, β5c. It counts as biochemical. As to conditions: human recombinant constitutive proteasome 0.3 nM, FAM-labeled peptide substrate 1 μM, rt 3 h; read-out: β5c subunit IC50.
Where [3] appears, read: human recombinant immunoproteasome 0.3 nM, FAM-labeled peptide substrate 1 μM, rt 3 h, read-out: LMP7 subunit IC50.

For the molecule `COC(=O)N1CCN(C(C)(C)C=C(C#N)C(=O)N2CCC[C@H](OC(=O)N[C@@H](CC3=CCCC3)B(O)O)C2)CC1` [Example 120, ((R)-1-(((((S)-1-(2-cyano-4-(4-(methoxycarbonyl)piperazin-1-yl)-4-methylpent-2-enoyl)piperidin-3-yl)oxy)carbonyl)amino)-2-(cyclopent-1-en-1-yl)ethyl)boronic acid], the figures for the IC50 in assay [1] (setting [3]) and in assay [2] were 0.0116 µM and above 5 µM, respectively.

Take `CC(C)(C=C(C#N)C(=O)N1CCC[C@H](COC(=O)N[C@@H](Cc2ccccc2)B(O)O)C1)N1CCC(F)(F)C1` [Example 53, ((R)-1-(((((S)-1-(2-cyano-4-(3,3-difluoropyrrolidin-1-yl)-4-methylpent-2-enoyl)piperidin-3-yl)methoxy)carbonyl)amino)-2-phenylethyl)boronic acid]: the values for the concentration for half-maximal inhibition (IC50) in assay [1] (setting [3]) and in assay [2] were 0.0044 µM and above 5 µM, respectively.

Consider `CC(C)(C=C(C#N)C(=O)N1CCC[C@@](C)(OC(=O)N[C@@H](Cc2ccccc2)B(O)O)C1)N1CCC(F)(F)C1` (single isomer, unassigned) [Example 93], for which the half-maximal inhibitory concentration (IC50) (usually the concentration that gives 50% inhibition) in assay [1] (setting [3]) was 0.646 µM; in assay [2], above 5 µM.

With `C=CC(=O)N1C[C@@H](F)[C@H](OC(=O)N[C@@H](Cc2ccccc2)B(O)O)C1` [Example 102, ((R)-1-(((((3R,4R)-1-acryloyl-4-fluoropyrrolidin-3-yl)oxy)carbonyl)amino)-2-phenylethyl)boronic acid], the results for the IC50 in assay [1] (setting [3]) and in assay [2] were 0.0271 µM and 4.7 µM, respectively.

On to `CC(C)(C=C(C#N)C(=O)N1CCC[C@@H]1CNC(=O)N[C@@H](Cc1coc2ccccc12)B(O)O)N1CCC(F)(F)C1` [Example 50, ((R)-2-(benzofuran-3-yl)-1-(3-(((R)-1-(2-cyano-4-(3,3-difluoropyrrolidin-1-yl)-4-methylpent-2-enoyl)pyrrolidin-2-yl)methyl)ureido)ethyl)boronic acid], for which the results for the IC50 in assay [1] (setting [3]) and in assay [2] were 0.004 µM and 1.2 µM, respectively.

As for `CC(C)(C=C(C#N)C(=O)N1CCC[C@H](NC(=O)N[C@@H](Cc2ccccc2)B(O)O)C1)N1CCC(F)(F)C1` [Example 112, ((R)-1-(3-((S)-1-(2-cyano-4-(3,3-difluoropyrrolidin-1-yl)-4-methylpent-2-enoyl)piperidin-3-yl)ureido)-2-phenylethyl)boronic acid], the values for the IC50 in assay [1] (setting [3]) and in assay [2] were 0.143 µM and 2.24 µM, respectively.

`C[C@@H]1CN(C(C)(C)C=C(C#N)C(=O)N2C3CCC2(COC(=O)N[C@@H](Cc2ccccc2)B(O)O)CC3)C[C@@H](C)O1` [Example 126, ((R)-1-((((7-(2-cyano-4-((2R,6R)-2,6-dimethylmorpholino)-4-methylpent-2-enoyl)-7-azabicyclo[2.2.1]heptan-1-yl)methoxy)carbonyl)amino)-2-phenylethyl)boronic acid]: the IC50 was determined as 0.0013 µM in assay [1] (setting [3]) and 0.967 µM in assay [2].

As for `C=CS(=O)(=O)N(C)c1cccc(C[C@H](NC(=O)c2cc(Cl)ccc2Cl)C(=O)N[C@@H](Cc2ccccc2)B(O)O)c1` [Example 16, ((R)-1-((S)-2-(2,5-dichlorobenzamido)-3-(3-(N-methylvinylsulfonamido)phenyl)propanamido)-2-phenylethyl)boronic acid], the IC50 in assay [1] (setting [3]) was 0.0043 µM; in assay [2], 0.0033 µM.

For `CC(C)(C=C(C#N)C(=O)N1CCO[C@H](CC(=O)N[C@@H](Cc2ccccc2)B(O)O)C1)N1CCC(F)(F)C1` [Example 58, ((R)-1-(2-((R)—4-(2-cyano-4-(3,3-difluoropyrrolidin-1-yl)-4-methylpent-2-enoyl)morpholin-2-yl)acetamido)-2-phenylethyl)boronic acid], the IC50 came to 0.01 µM in assay [1] (setting [3]) and 0.139 µM in assay [2].

Take `CC(C)(C=C(C#N)C(=O)N1CCCC[C@@H](OC(=O)N[C@@H](Cc2ccccc2)B(O)O)C1)N1CC2CC(C1)O2` [Example 134, ((1R)-1-(((((3R)-1-(4-(6-oxa-3-azabicyclo[3.1.1]heptan-3-yl)-2-cyano-4-methylpent-2-enoyl)azepan-3-yl)oxy)carbonyl)amino)-2-phenylethyl)boronic acid]: the IC50 in assay [1] (setting [3]) turned out to be 0.0019 µM; in assay [2] it was 1.01 µM.

Turning to `C[C@@H]1CN(C(C)(C)C=C(C#N)C(=O)N2CCCC[C@@H](OC(=O)N[C@@H](Cc3ccccc3)B(O)O)C2)CCO1` [Example 131, ((R)-1-(((((R)-1-(2-cyano-4-methyl-4-((R)-2-methylmorpholino)pent-2-enoyl)azepan-3-yl)oxy)carbonyl)amino)-2-phenylethyl)boronic acid], the IC50 in assay [1] (setting [3]) was 0.0026 µM; in assay [2], 1.48 µM.

As to `CC(C)C=C(C#N)C(=O)NCCCC[C@H](NC(=O)[C@@H](NC(=O)C(C)C)[C@@H](C)O)C(=O)N[C@@H](CC(C)C)B(O)O` [Example 9, ((R)-1-((S)-6-(2-cyano-4-methylpent-2-enamido)-2-((2S,3R)-3-hydroxy-2-isobutyramidobutanamido)hexanamido)-3-methylbutyl)boronic acid], the IC50 in assay [1] (setting [3]) came to 0.0082 µM; in assay [2], 0.0094 µM.

Consider `CC(C)(C)/C=C(\C#N)C(=O)N1CC[C@H](OC(=O)N[C@@H](Cc2ccccc2)B(O)O)C1` [Example 87, ((R)-1-(((((S)-1-((E)-2-cyano-4,4-dimethylpent-2-enoyl)pyrrolidin-3-yl)oxy)carbonyl)amino)-2-phenylethyl)boronic acid], for which the results for the IC50 in assay [1] (setting [3]) and in assay [2] were 0.0019 µM and 0.574 µM, respectively.

As to `CC(C)(C=C(C#N)C(=O)N1C2CCC1(COC(=O)N[C@@H](Cc1ccc(F)cc1)B(O)O)CC2)N1CCC(F)(F)C1` [Example 84, (R)-(1-((((7-(2-cyano-4-(3,3-difluoropyrrolidin-1-yl)-4-methylpent-2-enoyl)-7-azabicyclo[2.2.1]heptan-1-yl)methoxy)carbonyl)amino)-2-(4-fluorophenyl)ethyl)boronic acid], the IC50 was determined as 0.0007 µM in assay [1] (setting [3]) and 0.279 µM in assay [2].

For `CC1(C)CN(C(C)(C)C=C(C#N)C(=O)N2CCCC[C@@H](OC(=O)N[C@@H](Cc3ccccc3)B(O)O)C2)CCO1` [Example 136, ((R)-1-(((((R)-1-(2-cyano-4-(2,2-dimethylmorpholino)-4-methylpent-2-enoyl)azepan-3-yl)oxy)carbonyl)amino)-2-phenylethyl)boronic acid], the figures for the 50% inhibitory concentration (IC50) in assay [1] (setting [3]) and in assay [2] were 0.0013 µM and 1.28 µM, respectively.

Turning to `CC(C)(C=C(C#N)C(=O)N1CCCC[C@@H](OC(=O)N[C@@H](Cc2ccc(F)cc2)B(O)O)C1)N1CCOCC1` [Example 137, ((R)-1-(((((R)-1-(2-cyano-4-methyl-4-morpholinopent-2-enoyl)azepan-3-yl)oxy)carbonyl)amino)-2-(4-fluorophenyl)ethyl)boronic acid], the concentration for half-maximal inhibition (IC50) in assay [1] (setting [3]) is 0.0019 µM; in assay [2], 2.08 µM.

Consider `CN(C[C@H]1CCCCN1C(=O)C(C#N)=CC(C)(C)N1CCC(F)(F)C1)C(=O)N[C@@H](Cc1ccccc1)B(O)O` [Example 64], for which the half-inhibitory concentration (IC50) in assay [1] (setting [3]) and in assay [2] was above 5 µM in each case.

In the case of `COC(=O)N1CCN(C(C)(C)C=C(C#N)C(=O)N2CC[C@H](COC(=O)N[C@@H](Cc3ccccc3)B(O)O)C2)CC1` [Example 96, ((R)-1-(((((S)-1-(2-cyano-4-(4-(methoxycarbonyl)piperazin-1-yl)-4-methylpent-2-enoyl)pyrrolidin-3-yl)methoxy)carbonyl)amino)-2-phenylethyl)boronic acid], the IC50 in assay [1] (setting [3]) turned out to be 0.0087 µM; in assay [2] it was 1.62 µM.

For the molecule `C[C@H]1CN(C(C)(C)C=C(C#N)C(=O)N2C3CCC2(COC(=O)N[C@@H](Cc2ccccc2)B(O)O)CC3)C[C@H](C)O1` [Example 123, ((R)-1-((((7-(2-cyano-4-((2S,6S)-2,6-dimethylmorpholino)-4-methylpent-2-enoyl)-7-azabicyclo[2.2.1]heptan-1-yl)methoxy)carbonyl)amino)-2-phenylethyl)boronic acid], the 50% inhibitory concentration (IC50) in assay [1] (setting [3]) was determined as 0.0009 µM; in assay [2] it was 0.832 µM.

Take `C=CC(=O)N1CCCC(C)(OC(=O)N[C@@H](Cc2ccccc2)B(O)O)C1` (single isomer, unassigned) [Example 85]: the IC50 in assay [1] (setting [3]) and in assay [2] was above 5 µM each time.

For the molecule `C=CC(=O)N1CCC[C@H](OC(=O)N[C@@H](Cc2ccc(F)cc2)B(O)O)C1` [Example 70, ((R)-1-(((((S)-1-acryloylpiperidin-3-yl)oxy)carbonyl)amino)-2-(4-fluorophenyl)ethyl)boronic acid], the values for the half-inhibitory concentration (IC50) in assay [1] and in assay [2] were 0.106 µM and above 5 µM, respectively.

With `CC(C)(C=C(C#N)C(=O)N1CCCC[C@@H](OC(=O)N[C@@H](Cc2ccccc2)B(O)O)C1)N1CCOCC1` (single isomer, unassigned) [Example 103], the IC50 was 0.0022 µM in assay [1] (setting [3]) and 3.18 µM in assay [2].

In the case of `CC(C)C=C(C#N)C(=O)NCCCC[C@H](NC(=O)[C@H](C)NC(=O)C(C)C)C(=O)N[C@@H](Cc1ccccc1)B(O)O` [Example 4, ((R)-1-((S)-6-(2-cyano-4-methylpent-2-enamido)-2-((S)-2-isobutyramidopropanamido)hexanamido)-2-phenylethyl)boronic acid], the half-maximal inhibitory concentration (IC50) worked out at 0.014 µM in assay [1] (setting [3]) and 0.0237 µM in assay [2].

As to `CC(C)(C)C=C(C#N)C(=O)N1CCC[C@@H]1COC[C@H](NCC(F)(F)F)C(=O)N[C@@H](Cc1ccccc1)B(O)O` [Example 24, (R)-1-((S)-3-(((R)-1-(2-cyano-4,4-dimethylpent-2-enoyl)pyrrolidin-2-yl)methoxy)-2-(2,2,2-trifluoroethylamino)propanamido)-2-phenylethylboronic acid], the IC50 in assay [1] (setting [3]) came to 0.026 µM; in assay [2], 0.166 µM.

Consider `C=CC(=O)N1CC[C@@H]1COC(=O)N[C@@H](Cc1coc2ccccc12)B(O)O` [Example 62, ((R)-1-(((((R)-1-acryloylazetidin-2-yl)methoxy)carbonyl)amino)-2-(benzofuran-3-yl)ethyl)boronic acid], for which the half-inhibitory concentration (IC50) in assay [1] (setting [3]) is 0.0023 µM; in assay [2] it was 0.126 µM.
